PubChem BioAssay (NCI)
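Exposure lasted 48 hours, with cells grown in 96-well plates and compounds tested at five concentrations. Here, GI50 denotes the concentration required for 50% inhibition of growth. Definition used: TGI = concentration required for complete inhibition of growth.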

Columns and labels:
Test in all cases: NCI-60 cell line screen, 48 h
786-0 renal = test system: 786-0 renal
A498 renal = test system: A498 renal
A549 NSCLC = test system: A549 NSCLC
ACHN renal = test system: ACHN renal
BT-549 breast = test system: BT-549 breast
CAKI-1 renal = test system: CAKI-1 renal
CCRF-CEM leukemia = test system: CCRF-CEM leukemia
COLO 205 colon = test system: COLO 205 colon
DU-145 prostate = test system: DU-145 prostate
EKVX NSCLC = test system: EKVX NSCLC
HCC-2998 colon = test system: HCC-2998 colon
HCT-116 colon = test system: HCT-116 colon
HCT-15 colon = test system: HCT-15 colon
HL-60(TB) leukemia = test system: HL-60(TB) leukemia
HOP-62 NSCLC = test system: HOP-62 NSCLC
HOP-92 NSCLC = test system: HOP-92 NSCLC
HS 578T breast = test system: HS 578T breast
HT29 colon = test system: HT29 colon
IGROV1 ovarian = test system: IGROV1 ovarian
K-562 leukemia = test system: K-562 leukemia
KM12 colon = test system: KM12 colon
LOX IMVI melanoma = test system: LOX IMVI melanoma
M14 melanoma = test system: M14 melanoma
MALME-3M melanoma = test system: MALME-3M melanoma
MCF7 breast = test system: MCF7 breast
MDA-MB-231 breast = test system: MDA-MB-231 breast
MDA-MB-435 = test system: MDA-MB-435
MOLT-4 leukemia = test system: MOLT-4 leukemia
NCI-H226 lung = test system: NCI-H226 lung
NCI-H23 lung = test system: NCI-H23 lung
NCI-H460 lung = test system: NCI-H460 lung
NCI-H522 lung = test system: NCI-H522 lung
NCI/ADR-RES ovarian = test system: NCI/ADR-RES ovarian
OVCAR-3 ovarian = test system: OVCAR-3 ovarian
OVCAR-4 ovarian = test system: OVCAR-4 ovarian
OVCAR-5 ovarian = test system: OVCAR-5 ovarian
OVCAR-8 ovarian = test system: OVCAR-8 ovarian
PC-3 prostate = test system: PC-3 prostate
SF-268 CNS = test system: SF-268 CNS
SF-295 CNS = test system: SF-295 CNS
SF-539 CNS = test system: SF-539 CNS
SK-MEL-2 melanoma = test system: SK-MEL-2 melanoma
SK-MEL-28 melanoma = test system: SK-MEL-28 melanoma
SK-MEL-5 melanoma = test system: SK-MEL-5 melanoma
SK-OV-3 ovarian = test system: SK-OV-3 ovarian
SN12C renal = test system: SN12C renal
SNB-19 CNS = test system: SNB-19 CNS
SNB-75 CNS = test system: SNB-75 CNS
SR leukemia = test system: SR leukemia
SW-620 colon = test system: SW-620 colon
T-47D breast = test system: T-47D breast
TK-10 renal = test system: TK-10 renal
UACC-257 melanoma = test system: UACC-257 melanoma
UACC-62 melanoma = test system: UACC-62 melanoma
UO-31 renal = test system: UO-31 renal

## CCN(CC)c1ccc(/C=C2\SC(=O)C(Nc3nnc(-c4cccnc4SCc4ccccc4)o3)C2=O)cc1 (stereo not given)
786-0 renal
  GI50: 9.51 µM
  TGI: > 100 µM
A498 renal
  GI50: 1760 nM
  TGI: 8.2 µM
A549 NSCLC
  GI50: 3.98 µM
  TGI: > 100 µM
ACHN renal
  GI50: 6.78 µM
  TGI: > 100 µM
BT-549 breast
  GI50: 12 µM
  TGI: 59.3 µM
CAKI-1 renal
  GI50: 4.43 µM
  TGI: > 100 µM
CCRF-CEM leukemia
  GI50: 3.37 µM
  TGI: > 100 µM
COLO 205 colon
  GI50: 2190 nM
  TGI: 4.65 µM
DU-145 prostate
  GI50: 2760 nM
  TGI: 6.92 µM
EKVX NSCLC
  GI50: 6.72 µM
  TGI: > 100 µM
HCC-2998 colon
  GI50: 2990 nM
  TGI: 10.4 µM
HCT-116 colon
  GI50: 3.53 µM
  TGI: > 100 µM
HCT-15 colon
  GI50: 3.83 µM
  TGI: > 100 µM
HL-60(TB) leukemia
  GI50: 3.88 µM
  TGI: > 100 µM
HOP-62 NSCLC
  GI50: 4.32 µM
  TGI: 24.9 µM
HOP-92 NSCLC
  GI50: 2580 nM
  TGI: 35 µM
HS 578T breast
  GI50: 2610 nM
  TGI: 8.77 µM
HT29 colon
  GI50: 3.63 µM
  TGI: > 100 µM
IGROV1 ovarian
  GI50: 10.9 µM
  TGI: 56.8 µM
K-562 leukemia
  GI50: 3.24 µM
  TGI: > 100 µM
KM12 colon
  GI50: 3.64 µM
  TGI: 28.4 µM
LOX IMVI melanoma
  GI50: 3.76 µM
  TGI: > 100 µM
M14 melanoma
  GI50: 3.24 µM
  TGI: 13.5 µM
MALME-3M melanoma
  GI50: 4.12 µM
  TGI: > 100 µM
MCF7 breast
  GI50: 3.01 µM
  TGI: > 100 µM
MDA-MB-231 breast
  GI50: 2340 nM
  TGI: 10.4 µM
MDA-MB-435
  GI50: 2180 nM
  TGI: 5.81 µM
MOLT-4 leukemia
  GI50: 3.53 µM
  TGI: > 100 µM
NCI-H226 lung
  GI50: 9.41 µM
  TGI: 57.6 µM
NCI-H23 lung
  GI50: 2580 nM
  TGI: 8.62 µM
NCI-H460 lung
  GI50: 3.21 µM
  TGI: > 100 µM
NCI-H522 lung
  GI50: 3.15 µM
  TGI: 9.67 µM
NCI/ADR-RES ovarian
  GI50: 3.7 µM
  TGI: > 100 µM
OVCAR-3 ovarian
  GI50: 2770 nM
  TGI: 6.29 µM
OVCAR-4 ovarian
  GI50: 5.19 µM
  TGI: > 100 µM
OVCAR-5 ovarian
  GI50: 5.1 µM
  TGI: > 100 µM
OVCAR-8 ovarian
  GI50: 4 µM
  TGI: > 100 µM
PC-3 prostate
  GI50: 3.34 µM
  TGI: > 100 µM
SF-268 CNS
  GI50: 6.8 µM
  TGI: > 100 µM
SF-295 CNS
  GI50: 3.2 µM
  TGI: 85.6 µM
SF-539 CNS
  GI50: 3.21 µM
  TGI: 15.5 µM
SK-MEL-2 melanoma
  GI50: 10.1 µM
  TGI: 53.2 µM
SK-MEL-28 melanoma
  GI50: 5.29 µM
  TGI: 36.7 µM
SK-MEL-5 melanoma
  GI50: 3.85 µM
  TGI: 14.4 µM
SK-OV-3 ovarian
  GI50: 3.34 µM
  TGI: 19.9 µM
SN12C renal
  GI50: 4.11 µM
  TGI: > 100 µM
SNB-19 CNS
  GI50: 6.59 µM
  TGI: > 100 µM
SNB-75 CNS
  GI50: 2560 nM
  TGI: 42.2 µM
SR leukemia
  GI50: 3.29 µM
  TGI: > 100 µM
SW-620 colon
  GI50: 3.94 µM
  TGI: > 100 µM
T-47D breast
  GI50: 12.8 µM
  TGI: 89.7 µM
TK-10 renal
  GI50: 22.3 µM
  TGI: > 100 µM
UACC-257 melanoma
  GI50: 16.6 µM
  TGI: > 100 µM
UACC-62 melanoma
  GI50: 4.2 µM
  TGI: 27.4 µM
UO-31 renal
  GI50: 5.42 µM
  TGI: > 100 µM
